The subject of assay [1] is Staphylococcus aureus. The assay is described as follows: Antimicrobial activity against methicillin resistant Staphylococcus aureus ATCC 33591 after 16 hrs. Type of assay: functional. The note with it: ATCC 33591, 16 h.
For assay [2], the system named is Staphylococcus epidermidis. The experiment in a line: Antimicrobial activity against methicillin resistant Staphylococcus epidermidis RP62A after 16 hrs. Type of assay: functional.
The next assay deals with Enterococcus faecalis. The assay is described as follows: Antimicrobial activity against vancomycin resistant Enterococcus faecalis ATCC 700802 after 16 hrs. Type of assay: functional. The following applies: ATCC 700802, 16 h.
Assay [3] has as its system Escherichia coli. The assay is described as follows: Antimicrobial activity against Escherichia coli ATCC 25922 after 16 hrs. Type of assay: functional. The following applies: ATCC 25922, 16 h.
A further assay deals with Pseudomonas aeruginosa. The assay is described as follows: Antimicrobial activity against Pseudomonas aeruginosa ATCC 27853 after 16 hrs. Type of assay: functional. The following applies: ATCC 27853, 16 h.
The subject of a further assay is Klebsiella pneumoniae. The experiment in a line: Antimicrobial activity against Klebsiella pneumoniae ATCC 13383 after 16 hrs. Type of assay: functional. The note with it: ATCC 13383, 16 h.
Assay [4] can be described thus: Retention time of compound by HPLC analysis.
Assay [5] can be described thus: Selectivity index, ratio of HC50 for mouse RBC to MIC for methicillin resistance Staphylococcus aureus ATCC 33591.
Another assay concerns HCT-116. The assay is described as follows: Cytotoxicity against human HCT116 cells. Type of assay: cell-based.
Assay [6] deals with Staphylococcus aureus. The assay is described as follows: Induction of membrane disruption in methicillin resistance Staphylococcus aureus ATCC 33591 at 5 ug/ml after 2 hrs by propidium iodide/4', 6'-diamidino-2-phenylindole dihydrochloride dye based fluorescence microscopy. It counts as functional.
Assay [7] deals with Escherichia coli. The assay is described as follows: Induction of membrane disruption in Escherichia coli ATCC 25922 at 5 ug/ml after 2 hrs by propidium iodide/4', 6'-diamidino-2-phenylindole dihydrochloride dye based fluorescence microscopy. It counts as functional.
Assay [8] deals with Staphylococcus aureus. The assay is described as follows: Bactericidal activity against methicillin resistance Staphylococcus aureus ATCC 33591 at 25 ug/ml after 10 mins by time kill analysis. Type of assay: functional.
Assay [9] concerns Staphylococcus aureus. The assay is described as follows: Bactericidal activity against methicillin resistance Staphylococcus aureus ATCC 33591 at 2 ug/ml after 60 mins by time kill analysis. Type of assay: functional.
Assay [10] has as its system Escherichia coli. The experiment in a line: Bactericidal activity against Escherichia coli ATCC 25922 at 25 to 50 ug/ml after 30 mins by time kill analysis. It counts as functional.
Assay [11] has as its system Escherichia coli. The experiment in a line: Bactericidal activity against Escherichia coli ATCC 25922 at 4 ug/ml after 60 mins by time kill analysis. It counts as functional.
Assay [12] relates to Staphylococcus aureus. The experiment in a line: Antibacterial activity against methicillin resistance Staphylococcus aureus ATCC 33591 after 14 serial passage at 0.5 times MIC after 16 hrs. It counts as functional.
For assay [13], the system named is Staphylococcus aureus. The assay is described as follows: Antibacterial activity against methicillin resistance Staphylococcus aureus ATCC 33591 infected in Wistar rat assessed as reduction in bacterial load in bronchoalveolar lavage of lungs at 10 mg/kg, iv treated 24 hrs post infection measured after 3 days relative to control. Set-up: scale not given: the % may be the effect or the level left. Type of assay: functional.

The subject of assay [14] is Staphylococcus aureus. The assay is described as follows: Antibacterial activity against methicillin resistance Staphylococcus aureus ATCC 33591 infected in Wistar rat assessed as reduction in bacterial load in bronchoalveolar lavage of lungs at 10 mg/kg, iv treated 24 hrs post infection measured after 5 days relative to control. Set-up: scale not given: the % may be the effect or the level left. Type of assay: functional.

Assay [15] concerns Staphylococcus aureus. The experiment in a line: Antibacterial activity against methicillin resistant Staphylococcus aureus ATCC 33591 infected in Wistar rat assessed as reduction in lung inflammation at 10 mg/kg, iv treated 24 hrs post infection measured after 5 days by hematoxylin/ eosin staining based microscopic analysis. Type of assay: functional, organism-based.
Assay [16] relates to Staphylococcus aureus. The assay is described as follows: Antibacterial activity against methicillin resistant Staphylococcus aureus ATCC 33591 infected in Wistar rat assessed as reduction in lung inflammation at 10 mg/kg, iv treated 24 hrs post infection measured after 3 days by hematoxylin/ eosin staining based microscopic analysis. It counts as functional, organism-based.

Converted amounts (≈) assume the structure as drawn. The source made the active and inactive calls. No cut-off for these calls is given here.

As a reminder, the MIC is the least concentration at which growth counts as inhibited. Consider `CCCCCCCCCCCC(=O)N[C@@H](CCCCN)CN1CC(=O)N(c2ccc(OC)cc2)C1=O`, for which the MIC against Staphylococcus aureus [1] was 25 µg/mL (≈ 49.7 µM); in assay [2], 25 µg/mL (≈ 49.7 µM); in the assay with Enterococcus faecalis, 25 µg/mL (≈ 49.7 µM); in the assay with Escherichia coli [3] it was 12.5 µg/mL (≈ 24.9 µM); in the assay with Pseudomonas aeruginosa, 12.5 µg/mL (≈ 24.9 µM); against Klebsiella pneumoniae, 12.5 µg/mL (≈ 24.9 µM). In assay [4], this compound showed a Retention time of less than 26 min. Further, in assay [5], the Selectivity Index came to 8.
Regarding `CCCCCCCCCCCC(=O)N[C@@H](CCCCN)CN1CC(=O)N(C2CCCCC2)C1=O`, the minimum inhibitory concentration (MIC) in the assay with Staphylococcus aureus [1] amounted to 6.25 µg/mL (≈ 13.1 µM); in assay [2] it was 6.25 µg/mL (≈ 13.1 µM); against Enterococcus faecalis, 12.5 µg/mL (≈ 26.1 µM); in the assay with Escherichia coli [3], 6.25 µg/mL (≈ 13.1 µM); in the assay on Pseudomonas aeruginosa, 12.5 µg/mL (≈ 26.1 µM); with Klebsiella pneumoniae it was 6.25 µg/mL (≈ 13.1 µM). In assay [5], the Selectivity Index was found to be 16.
`CCCCCCCCCCCC(=O)N[C@@H](CCCCN)CN1CC(=O)N(CC)C1=O`: the MIC was greater than 50 µg/mL with Staphylococcus aureus [1]; greater than 50 µg/mL in [2]; greater than 50 µg/mL with Enterococcus faecalis; 12.5 µg/mL (≈ 29.4 µM) in the assay on Escherichia coli [3]; greater than 50 µg/mL in the assay with Pseudomonas aeruginosa; greater than 50 µg/mL in the assay with Klebsiella pneumoniae. In [4], this compound had a Retention time of less than 26 min.
Turning to `CCCCCCCCCCCCCC(=O)N[C@@H](CCCCN)CN1CC(=O)N(CC)C1=O`, the MIC stood at 6.25 µg/mL (≈ 13.8 µM) with Staphylococcus aureus [1]; 6.25 µg/mL (≈ 13.8 µM) in assay [2]; 6.25 µg/mL (≈ 13.8 µM) in the assay with Enterococcus faecalis; 3.12 µg/mL (≈ 6.89 µM) in the assay on Escherichia coli [3]; 12.5 µg/mL (≈ 27.6 µM) in the assay on Pseudomonas aeruginosa; 6.25 µg/mL (≈ 13.8 µM) in the assay on Klebsiella pneumoniae. Moreover, the Selectivity Index in assay [5] turned out to be 14.4.
In the case of `CCCCCCCCCC(=O)N[C@@H](CCCCN)CN1CC(=O)N(C2CCCCC2)C1=O`, the MIC in the assay with Staphylococcus aureus [1] was 25 µg/mL (≈ 55.5 µM); in assay [2], greater than 50 µg/mL; against Enterococcus faecalis, greater than 50 µg/mL; in the assay on Escherichia coli [3] it was 12.5 µg/mL (≈ 27.7 µM); with Pseudomonas aeruginosa, greater than 50 µg/mL; against Klebsiella pneumoniae, 25 µg/mL (≈ 55.5 µM). In addition, the Retention time in [4] was less than 26 min.
For the compound `CCCCCCCCCC(=O)N[C@@H](CCCCN)CN1CC(=O)N(c2cccc(Cl)c2)C1=O`, the MIC with Staphylococcus aureus [1] came out at 6.25 µg/mL (≈ 13 µM); in assay [2] it was 6.25 µg/mL (≈ 13 µM); against Enterococcus faecalis it was 12.5 µg/mL (≈ 26.1 µM); against Escherichia coli [3], 6.25 µg/mL (≈ 13 µM); against Pseudomonas aeruginosa, 6.25 µg/mL (≈ 13 µM); against Klebsiella pneumoniae it was 6.25 µg/mL (≈ 13 µM). For the same compound, the Selectivity Index in assay [5] stood at 16.
With `CCCCCCCCCCCC(=O)N[C@@H](CCCCN)CN1CC(=O)N(CCCC)C1=O`, the MIC in the assay on Staphylococcus aureus [1] was determined as 12.5 µg/mL (≈ 27.6 µM); in assay [2], 25 µg/mL (≈ 55.2 µM); with Enterococcus faecalis it was 25 µg/mL (≈ 55.2 µM); against Escherichia coli [3], 6.25 µg/mL (≈ 13.8 µM); in the assay with Pseudomonas aeruginosa, 25 µg/mL (≈ 55.2 µM); against Klebsiella pneumoniae it was 12.5 µg/mL (≈ 27.6 µM). In [4], this compound registered a Retention time of less than 26 min. Moreover, the Selectivity Index in [5] was 6.4.
Regarding `CCCCCCCCCC(=O)N[C@@H](CCCCN)CN1CC(=O)N(CCCC)C1=O`, the minimal inhibitory concentration (MIC) (against Staphylococcus aureus [1]; in assay [2]; in the assay on Enterococcus faecalis; against Escherichia coli [3]; against Pseudomonas aeruginosa; against Klebsiella pneumoniae) was greater than 50 µg/mL in each case. In assay [4], this compound had a Retention time of less than 26 min.
With `CCCCCCCCCCCC(=O)N[C@@H](Cc1ccccc1)CN1CC(=O)N(c2cccc(Cl)c2)C1=O`, the MIC (with Staphylococcus aureus [1]; in assay [2]; with Enterococcus faecalis; with Escherichia coli [3]; in the assay on Pseudomonas aeruginosa; against Klebsiella pneumoniae) was greater than 50 µg/mL in each case. This compound also had a Retention time in [4] of less than 26 min.
In the case of `CCCCCCCCCC(=O)N[C@@H](CCCCN)CN1CC(=O)N(c2ccc(OC)cc2)C1=O`, the MIC (in the assay with Staphylococcus aureus [1]; in [2]; against Enterococcus faecalis; in the assay on Escherichia coli [3]; with Pseudomonas aeruginosa; against Klebsiella pneumoniae) was greater than 50 µg/mL throughout. This compound displayed a Retention time in [4] of less than 26 min.
In general, IC50 refers to the concentration that gives 50% inhibition. As for `CCCCCCCCCCCC(=O)N[C@@H](CCCCN)CN1CC(=O)N(c2cccc(Cl)c2)C1=O`, the MIC with Staphylococcus aureus [1] turned out to be 0.5 µg/mL (≈ 0.986 µM); in [2], 0.5 µg/mL (≈ 0.986 µM); in the assay on Enterococcus faecalis, 0.5 µg/mL (≈ 0.986 µM); with Escherichia coli [3], 1 µg/mL (≈ 1.97 µM); in the assay on Pseudomonas aeruginosa, 1 µg/mL (≈ 1.97 µM); in the assay on Klebsiella pneumoniae it was 0.78 µg/mL (≈ 1.54 µM). Further, the Retention time in [4] was 28.4 min. Further, in the assay with HCT-116, half-maximal inhibition (IC50) was put at 100 µg/mL (≈ 197 µM). Moreover, the Selectivity Index in [5] worked out at 190. In addition, the outcome with Staphylococcus aureus [6], with Escherichia coli [7], with Staphylococcus aureus [8], in the assay on Staphylococcus aureus [9], in the assay on Escherichia coli [10] and in the assay on Escherichia coli [11] was Active. In addition, the result in the assay with Staphylococcus aureus [12], in the assay on Staphylococcus aureus [15] and with Staphylococcus aureus [16] was Active. The Activity is reported as 70% with Staphylococcus aureus [13] and 96% in the assay with Staphylococcus aureus [14].
On to `CCCCCCCCCCCCCCCC(=O)N[C@@H](CCCCN)CN1CC(=O)N(CC)C1=O`, for which the MIC in the assay with Staphylococcus aureus [1] is 3.12 µg/mL (≈ 6.49 µM); in assay [2], 3.12 µg/mL (≈ 6.49 µM); against Enterococcus faecalis, 3.12 µg/mL (≈ 6.49 µM); in the assay with Escherichia coli [3] it was 3.12 µg/mL (≈ 6.49 µM); in the assay with Pseudomonas aeruginosa, greater than 50 µg/mL; with Klebsiella pneumoniae it was 12.5 µg/mL (≈ 26 µM). This compound showed a Retention time in [4] of less than 26 min.
Consider `CN[C@H](CC(C)C)C(=O)N[C@H]1C(=O)N[C@@H](CC(N)=O)C(=O)N[C@H]2C(=O)N[C@H]3C(=O)N[C@H](C(=O)N[C@H](C(=O)O)c4cc(O)cc(O)c4-c4cc3ccc4O)[C@H](O)c3ccc(c(Cl)c3)Oc3cc2cc(c3O[C@@H]2O[C@H](CO)[C@@H](O)[C@H](O)[C@H]2O[C@H]2C[C@](C)(N)[C@H](O)[C@H](C)O2)Oc2ccc(cc2Cl)[C@H]1O` [VANCOMYCIN], for which the values for the Activity with Staphylococcus aureus [13] and with Staphylococcus aureus [14] were 30% and 45%, respectively. Besides, the outcome in the assay on Staphylococcus aureus [15] and with Staphylococcus aureus [16] was Active.
In the case of `CCCCCCCCCC(=O)N[C@@H](CCCCN)CN1CC(=O)N(C23CC4CC(CC(C4)C2)C3)C1=O`, the minimum inhibitory concentration (MIC) against Staphylococcus aureus [1] worked out at 6.25 µg/mL (≈ 12.4 µM); in assay [2], 6.25 µg/mL (≈ 12.4 µM); in the assay with Enterococcus faecalis, 12.5 µg/mL (≈ 24.9 µM); in the assay on Escherichia coli [3], 6.25 µg/mL (≈ 12.4 µM); against Pseudomonas aeruginosa, 12.5 µg/mL (≈ 24.9 µM); in the assay with Klebsiella pneumoniae, 6.25 µg/mL (≈ 12.4 µM). Further, in assay [5], the Selectivity Index amounted to 20.

The record behind these values is ChEMBL document CHEMBL4017541, “Membrane-Active Hydantoin Derivatives as Antibiotic Agents” (J Med Chem, 2017).
